{"source": "patent US7074420B2", "about": "“Cosmetic treatment using a new retinoid” (Avon Products, Inc., priority 2001, dated 2006)", "assay": "stability of compositions (lasting white color, no yellowing over time)", "type": "physicochemical", "details": "particularly in a stick product form", "from_the_text": "This is evidenced by a lasting white color of the present compositions, without the manifestation of yellowing over time, particularly in a stick product form. The present compositions can also be in other cosmetic product forms, such as, for example, an emulsion, a gel, a lip balm, a lip gloss, a lipstick, a lotion, a mask, an ointment, a patch, a pomade, a solution, a spray, or a towelette.", "data": [{"smiles": "CC(C=CC1=C(C)CCCC1(C)C)=CC=CC(C)=CCO[Si](C)(C)C", "note": "[retinoxytrimethylsilane]", "values": [{"measurement": "stability of compositions compared to prior art", "result": "more stable compositions than those of the prior art"}]}]}
